Results: ChEMBL document CHEMBL1909046, “DrugMatrix in vitro pharmacology data”
*1 amine or outer side, *2 acyl side, *3 side chain or, on linkers, in order; H or OH if unused. Where a SMILES comes first, the peptide text is derived from it. Bridges are numbered along the chain shown (N, C = ends). Roman numbers before positions name the chains, in order. [ ]: non-standard residue; d: D form. Actinocin(1to9) = Cc1c2oc3c(C)ccc(C(=O)[*:2])c3nc-2c(C(=O)[*:1])c(N)c1=O; NMeV = CN[C@H](C(=O)O)C(C)C; Sar = CNCC(=O)O

Legend:
[1] = molecular target: Acetylcholinesterase (Homo sapiens, UniProt P22303); assay: DRUGMATRIX: Acetylcholinesterase enzyme inhibition (substrate: acetylthiocholine); assay type: cell-based, HEK293; details: Not Active = under 50% inhibition at 10 µM
Chain of Acetylcholinesterase (P22303 whole entry): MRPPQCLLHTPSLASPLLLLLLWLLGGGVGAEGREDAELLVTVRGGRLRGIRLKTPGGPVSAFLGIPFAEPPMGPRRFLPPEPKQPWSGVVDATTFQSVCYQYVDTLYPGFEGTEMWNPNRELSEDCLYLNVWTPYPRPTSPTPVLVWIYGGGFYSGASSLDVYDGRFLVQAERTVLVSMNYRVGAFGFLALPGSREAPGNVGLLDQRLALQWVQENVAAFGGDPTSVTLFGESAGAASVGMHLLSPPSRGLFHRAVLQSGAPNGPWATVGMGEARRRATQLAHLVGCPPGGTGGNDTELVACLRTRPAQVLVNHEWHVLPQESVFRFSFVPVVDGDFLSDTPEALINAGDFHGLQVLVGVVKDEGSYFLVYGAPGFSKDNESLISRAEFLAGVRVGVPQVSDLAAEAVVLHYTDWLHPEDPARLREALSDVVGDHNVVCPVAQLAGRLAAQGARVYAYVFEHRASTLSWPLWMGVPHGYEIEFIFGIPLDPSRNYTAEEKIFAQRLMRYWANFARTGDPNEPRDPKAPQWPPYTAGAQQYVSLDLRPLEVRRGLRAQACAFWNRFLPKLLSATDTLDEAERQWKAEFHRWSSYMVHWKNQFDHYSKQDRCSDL

[2] = molecular target: D(3) dopamine receptor (Homo sapiens, UniProt P35462); assay: DRUGMATRIX: Dopamine D3 radioligand binding (ligand: [3H] Spiperone); assay type: cell membranes, CHO, Membrane; details: cho
Chain of D(3) dopamine receptor (P35462 whole entry): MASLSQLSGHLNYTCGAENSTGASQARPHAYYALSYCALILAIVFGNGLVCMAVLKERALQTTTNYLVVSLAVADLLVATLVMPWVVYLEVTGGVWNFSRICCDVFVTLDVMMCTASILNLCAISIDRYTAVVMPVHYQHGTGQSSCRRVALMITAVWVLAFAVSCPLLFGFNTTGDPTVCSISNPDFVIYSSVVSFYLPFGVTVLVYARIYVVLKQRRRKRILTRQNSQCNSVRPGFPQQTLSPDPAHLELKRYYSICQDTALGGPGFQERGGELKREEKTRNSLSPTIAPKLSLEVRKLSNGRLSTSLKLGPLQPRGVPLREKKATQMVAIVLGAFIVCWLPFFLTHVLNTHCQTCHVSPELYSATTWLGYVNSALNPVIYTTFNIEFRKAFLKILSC

[3] = DRUGMATRIX: Atrial Natriuretic Factor (ANF) radioligand binding (ligand: [125I] ANF (rat)); assay type: cell membranes, Cavia porcellus, Dunkin-Hartley, Adrenal gland, Membrane; details: Not Active = under 50% inhibition at 10 µM
[4] = DRUGMATRIX: Nicotinic Acetylcholine radioligand binding (ligand: [125I] Epibatidine); assay type: cell membranes, Membrane; details: imr-32; Not Active = under 50% inhibition at 10 µM
[5] = molecular target: Sigma non-opioid intracellular receptor 1 (Homo sapiens, UniProt Q99720); assay: DRUGMATRIX: Sigma1 radioligand binding (ligand: [3H] Haloperidol); assay type: cell membranes, Jurkat, Membrane; details: jurkat; Not Active = under 50% inhibition at 10 µM
Chain of Sigma non-opioid intracellular receptor 1 (Q99720 whole entry): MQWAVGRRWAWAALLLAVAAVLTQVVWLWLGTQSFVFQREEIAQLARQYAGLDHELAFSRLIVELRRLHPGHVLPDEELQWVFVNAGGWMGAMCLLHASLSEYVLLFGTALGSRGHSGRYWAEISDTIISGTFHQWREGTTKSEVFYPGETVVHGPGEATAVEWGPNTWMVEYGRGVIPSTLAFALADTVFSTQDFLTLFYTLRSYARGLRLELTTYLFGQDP

[6] = molecular target: 5-hydroxytryptamine receptor 1B (Rattus norvegicus, UniProt P28564); assay type: cell membranes, Wistar, Cerebral cortex, Membrane; also: in other assays of this panel Not Active means under 50% inhibition at 10 µM
Chain of 5-hydroxytryptamine receptor 1B (P28564 whole entry): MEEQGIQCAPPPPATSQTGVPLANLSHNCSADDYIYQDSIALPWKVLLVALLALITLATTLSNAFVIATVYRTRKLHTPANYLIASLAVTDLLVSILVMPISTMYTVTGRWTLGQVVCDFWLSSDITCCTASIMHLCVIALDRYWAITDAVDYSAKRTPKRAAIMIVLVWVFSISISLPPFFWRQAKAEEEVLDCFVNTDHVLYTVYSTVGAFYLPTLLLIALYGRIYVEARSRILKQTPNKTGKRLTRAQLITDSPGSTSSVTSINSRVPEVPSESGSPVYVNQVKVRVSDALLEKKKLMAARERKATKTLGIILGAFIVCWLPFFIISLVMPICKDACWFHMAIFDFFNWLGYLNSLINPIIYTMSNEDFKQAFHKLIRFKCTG

| Structure (SMILES) | IC50 ([1]; hek293) | IC50 [2] | IC50 [3] | Ki [3] | IC50 [4] | Ki [4] | IC50 [5] | IC50 [6] | IC50 ([1]; read-out: IC50) [nM] |
| --- | --- | --- | --- | --- | --- | --- | --- | --- | --- |
| CC1=C2C(=CO[C@H](C)[C@H]2C)C(O)=C(C(=O)O)C1=O [CITRININ] | Not Active | Not Active | Not Active | Not Active | Not Active | Not Active | Not Active | Not Active | – |
| CC(C)(C)NCC(O)c1cc(Cl)c(N)c(Cl)c1 (stereo unspecified) [CLENBUTEROL] | Not Active | Not Active | Not Active | Not Active | Not Active | Not Active | Not Active | Not Active | – |
| CC(C)(Oc1ccc(Cl)cc1)C(=O)O [CLOFIBRIC ACID] | Not Active | Not Active | Not Active | Not Active | Not Active | Not Active | Not Active | Not Active | – |
| Clc1cccc(Cl)c1NC1=NCCN1 [CLONIDINE] | Not Active | Not Active | Not Active | Not Active | Not Active | Not Active | Not Active | Not Active | – |
| Cc1cc(C(C#N)c2ccc(Cl)cc2)c(Cl)cc1NC(=O)c1cc(I)cc(I)c1O (stereo unspecified) [CLOSANTEL] | – | Not Active | Not Active | Not Active | Not Active | Not Active | Not Active | Not Active | 2950 |
| Cc1onc(-c2ccccc2Cl)c1C(=O)N[C@@H]1C(=O)N2[C@@H]1SC(C)(C)[C@@H]2C(=O)O [CLOXACILLIN] | Not Active | Not Active | Not Active | Not Active | Not Active | Not Active | Not Active | Not Active | – |
| CC1CC(OC(=O)C(O)c2ccccc2)CC(C)(C)C1 (stereo unspecified) [CYCLANDELATE] | Not Active | Not Active | Not Active | Not Active | Not Active | Not Active | Not Active | Not Active | – |
| Cc1c2oc3c(C)ccc(C(=O)N[C@@H]4C(=O)N[C@H](C(C)C)C(=O)N5CCC[C@H]5C(=O)N(C)CC(=O)N(C)[C@@H](C(C)C)C(=O)O[C@@H]4C)c3nc-2c(C(=O)N[C@@H]2C(=O)N[C@H](C(C)C)C(=O)N3CCC[C@H]3C(=O)N(C)CC(=O)N(C)[C@@H](C(C)C)C(=O)O[C@@H]2C)c(N)c1=O [DACTINOMYCIN] (I: T[dV]P[Sar][NMeV] / II: T[dV]P[Sar][NMeV]; ester I:1-I:C, II:1-II:C; linker I:N-II:N via Actinocin(1to9)) | Not Active | Not Active | Not Active | Not Active | Not Active | Not Active | Not Active | Not Active | – |
| Cc1c(O)c(=O)ccn1C [DEFERIPRONE] | Not Active | Not Active | Not Active | Not Active | Not Active | Not Active | Not Active | Not Active | – |
| CNCCCN1c2ccccc2CCc2ccccc21 [DESIPRAMINE] | Not Active | Not Active | Not Active | Not Active | Not Active | Not Active | Not Active | Not Active | – |
| O=c1oc2ccccc2c(O)c1Cc1c(O)c2ccccc2oc1=O [DICUMAROL] | Not Active | Not Active | Not Active | Not Active | Not Active | Not Active | Not Active | Not Active | – |
| C[C@H]1O[C@@H](O[C@H]2[C@@H](O)C[C@H](O[C@H]3[C@@H](O)C[C@H](O[C@H]4CC[C@@]5(C)[C@H](CC[C@@H]6[C@@H]5C[C@@H](O)[C@]5(C)[C@@H](C7=CC(=O)OC7)CC[C@]65O)C4)O[C@@H]3C)O[C@@H]2C)C[C@H](O)[C@@H]1O [DIGOXIN] | Not Active | Not Active | Not Active | Not Active | Not Active | Not Active | Not Active | Not Active | – |
